From paper PMC8847695 (Frontiers in Chemistry, 2022)
“Also recorded” adds a separate entry of the source. Blank lines part the entries; values can stand above or below the compound they belong to.

Columns and labels:
DOT1L = biological target: T1, DOT1L (Homo sapiens, UniProt Q8TEK3); assay: ITC validation, DOT1L; format: binding; settings: 25°C, detection level >1 mM
T1 construct: made in house; host or cells: E. coli BL21 (DE3) pLysS
Method: (§1) The protein was buffer exchanged into 50 mM HEPES, 100 mM NaCl, 2 mM MgCl2, and 1 mM TCEP at pH 7.4. The protein was concentrated to 50–100 µM, and DMSO was added to a final concentration of 5% (^V/V). The fragments were dissolved in DMSO to yield a 100 mM stock solution, which was further diluted with buffer to yield a 5 mM solution also containing 5% (^V/V) DMSO. A MicroCal iTC200 (Malvern) instrument was used with the measuring cell set to 25°C, while the cooling jacket was set to 15°C. After a 120 s initial delay following temperature equilibration, a first injection with 0.5 µl over 2 s was done. […] The measurement was conducted using a needle stirring speed of 1,000 rpm and a reference heat rate of 10 μcal/s. Experiments were aborted, when the measuring cell was unable to reach a heat rate greater than 9 μcal/s during equilibration. Affinities were averaged from duplicates.

CAMK1G (1-320) = biological target: T2, CAMK1G (1-320) (Homo sapiens, UniProt Q96NX5); assay: STD-NMR fragment screening, CAMK1G; format: binding; settings: 1 mM fragment, 20 µM protein; hit if peak in difference spectrum three times higher than local noise
T2 construct: made in house; host or cells: E. coli BL21 (DE3) pLysS
Procedure, shortened: (§2)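 Saturation-transfer difference NMR was run at 25°C and 700 MHz with 20 µM protein, two fragments at 1 mM each, and 10% DMSO-d6. On-resonance saturation was at 0.5–0.6 ppm and off-resonance at 40 ppm, with a 3 s Gaussian-pulse train. A hit required a difference-spectrum peak at least three times the local noise.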

AAK1 (121-471) = AAK1 (121-471) (Homo sapiens, UniProt Q2M2I8); assay: STD-NMR fragment screening, AAK1; format: binding; settings: 1 mM fragment, 20 µM protein; hit if peak in difference spectrum three times higher than local noise
Procedure, shortened: as §2

IDO1 (1-435) = biological target: T3, IDO1 (1-435) (Homo sapiens, UniProt P14902); assay: STD-NMR fragment screening, IDO1; format: binding; settings: 1 mM fragment, 20 µM protein; hit if peak in difference spectrum three times higher than local noise
T3 construct: His-tag of pET15b with TEV site (thrombin site replaced) (cleaved yes); made in house; host or cells: E. coli Rosetta 2 (DE3) pLysS
Procedure, shortened: as §2

DOT1L (1-416) = biological target: T4, DOT1L (1-416) (Homo sapiens, UniProt Q8TEK3); assay: STD-NMR fragment screening, DOT1L; format: binding; settings: 1 mM fragment, 20 µM protein; hit if peak in difference spectrum three times higher than local noise
T4 construct: made in house; host or cells: E. coli BL21 (DE3) pLysS
Procedure, shortened: as §2

AAK1 = AAK1 (Homo sapiens, UniProt Q2M2I8); assay: ITC validation, AAK1; format: binding; settings: for Kd / KD: ITC; for LE: LE=1/N⋅1.4⋅−log(KD); for LE / LELP: AAK1; for LELP: LELP= logP/LE
Method: as §1

IDO1 = biological target: T5, IDO1 (Homo sapiens, UniProt P14902); assay: ITC validation, IDO1; format: binding
T5 construct: His-tag of pET15b with TEV site (thrombin site replaced) (cleaved yes); made in house; host or cells: E. coli Rosetta 2 (DE3) pLysS
Method: (§3) The protein was buffer exchanged into 50 mM HEPES, 100 mM NaCl, 2 mM MgCl2, and 1 mM TCEP at pH 7.4. The protein was concentrated to 50–100 µM, and DMSO was added to a final concentration of 5% (^V/V). The fragments were dissolved in DMSO to yield a 100 mM stock solution, which was further diluted with buffer to yield a 5 mM solution also containing 5% (^V/V) DMSO. A MicroCal iTC200 (Malvern) instrument was used with the measuring cell set to 25°C, while the cooling jacket was set to 15°C. After a 120 s initial delay following temperature equilibration, a first injection with 0.5 µl over 2 s was done. Nineteen injections with 2 µl over 4 s were performed every 180 s ([Ruhmann et al., 2015]). The measurement was conducted using a needle stirring speed of 1,000 rpm and a reference heat rate of 10 μcal/s. Experiments were aborted, when the measuring cell was unable to reach a heat rate greater than 9 μcal/s during equilibration. Affinities were averaged from duplicates.

CAMK1G = biological target: T6, CAMK1G (Homo sapiens, UniProt Q96NX5); assay: ITC validation, CAMK1G; format: binding; settings: for Kd: ITC, 25°C, 5% DMSO, pH 7.4, duplicates, 7405: fragment concentration reduced to 2 mM
T6 construct: made in house; host or cells: E. coli BL21 (DE3) pLysS
Method: as §1

[1] = GSH stability assay (HPLC); format: physicochemical; settings: t1/2 > 20 h defined as sufficiently stable
Method: A 500 µM fragment solution in PBS buffer pH 7.4, 10% acetonitrile and 200 µM indoprofen as an internal standard, was added to 10 mM GSH solution in a 1:2 ratio. The reaction temperature was 40°C. […] The reaction of fragments with GSH was determined by measuring the decreasing area under the curve (AUC) of the compound relative to the internal standard indoprofen. The gradient was chosen depending on the polarity of fragments to be either one of the following: […]

JNK2 = JNK2 (Homo sapiens, UniProt P45984); assay: ITC, JNK2; format: binding
Method: as §3

JNK3 = JNK3 (Homo sapiens, UniProt P53779); assay: ITC, JNK3; format: binding
Method: as §3

[2] = 25°C, 5% DMSO, pH 7.4, duplicates
[3] = ITC, 25°C, 5% DMSO, pH 7.4, duplicates

T5 sequence (P14902 whole entry): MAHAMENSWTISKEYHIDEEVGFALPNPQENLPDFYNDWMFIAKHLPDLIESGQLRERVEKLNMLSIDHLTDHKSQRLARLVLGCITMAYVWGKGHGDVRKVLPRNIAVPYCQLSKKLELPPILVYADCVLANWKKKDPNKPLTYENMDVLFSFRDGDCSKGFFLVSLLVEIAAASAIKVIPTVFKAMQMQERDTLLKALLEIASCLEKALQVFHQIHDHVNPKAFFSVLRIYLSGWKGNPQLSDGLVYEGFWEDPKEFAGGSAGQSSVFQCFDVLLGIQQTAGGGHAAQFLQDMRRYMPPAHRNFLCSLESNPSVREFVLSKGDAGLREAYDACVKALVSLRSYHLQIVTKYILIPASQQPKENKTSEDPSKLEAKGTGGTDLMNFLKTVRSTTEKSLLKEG
T6 sequence (Q96NX5 1-320): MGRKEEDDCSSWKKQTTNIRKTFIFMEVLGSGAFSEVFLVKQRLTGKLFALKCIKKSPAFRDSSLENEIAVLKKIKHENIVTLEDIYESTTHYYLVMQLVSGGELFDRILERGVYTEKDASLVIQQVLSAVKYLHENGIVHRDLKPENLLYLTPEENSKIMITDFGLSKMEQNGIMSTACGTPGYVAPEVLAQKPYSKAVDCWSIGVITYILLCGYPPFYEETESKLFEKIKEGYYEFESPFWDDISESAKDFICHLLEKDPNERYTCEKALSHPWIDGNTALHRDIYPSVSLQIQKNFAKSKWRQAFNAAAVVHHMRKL
T1 sequence (Q8TEK3 1-416): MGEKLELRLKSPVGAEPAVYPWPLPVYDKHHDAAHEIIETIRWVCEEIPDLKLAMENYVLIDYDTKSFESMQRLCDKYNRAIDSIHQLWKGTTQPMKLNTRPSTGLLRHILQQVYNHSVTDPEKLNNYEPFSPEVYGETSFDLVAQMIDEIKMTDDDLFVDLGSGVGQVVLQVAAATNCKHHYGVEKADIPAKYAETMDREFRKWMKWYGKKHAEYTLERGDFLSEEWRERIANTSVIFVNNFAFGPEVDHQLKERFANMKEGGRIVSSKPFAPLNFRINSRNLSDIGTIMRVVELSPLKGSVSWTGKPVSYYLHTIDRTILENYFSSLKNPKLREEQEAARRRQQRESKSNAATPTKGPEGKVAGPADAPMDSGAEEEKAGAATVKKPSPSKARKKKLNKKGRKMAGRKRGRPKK
Chain of AAK1 (Q2M2I8 46-315 limits assumed): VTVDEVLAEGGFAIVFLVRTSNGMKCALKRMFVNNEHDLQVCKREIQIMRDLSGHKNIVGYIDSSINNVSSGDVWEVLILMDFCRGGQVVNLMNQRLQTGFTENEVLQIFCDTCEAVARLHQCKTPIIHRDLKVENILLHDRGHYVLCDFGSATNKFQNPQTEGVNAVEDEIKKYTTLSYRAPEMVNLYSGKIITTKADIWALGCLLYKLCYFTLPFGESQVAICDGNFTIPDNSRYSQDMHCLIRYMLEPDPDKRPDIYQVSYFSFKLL
T2 sequence (Q96NX5 1-320): as the sequence (Q96NX5 1-320) above
Chain of AAK1 (121-471) (Q2M2I8 46-315 limits assumed): as the sequence (Q2M2I8 46-315 limits assumed) above
Chain of JNK2 (P45984 whole entry, species assumed): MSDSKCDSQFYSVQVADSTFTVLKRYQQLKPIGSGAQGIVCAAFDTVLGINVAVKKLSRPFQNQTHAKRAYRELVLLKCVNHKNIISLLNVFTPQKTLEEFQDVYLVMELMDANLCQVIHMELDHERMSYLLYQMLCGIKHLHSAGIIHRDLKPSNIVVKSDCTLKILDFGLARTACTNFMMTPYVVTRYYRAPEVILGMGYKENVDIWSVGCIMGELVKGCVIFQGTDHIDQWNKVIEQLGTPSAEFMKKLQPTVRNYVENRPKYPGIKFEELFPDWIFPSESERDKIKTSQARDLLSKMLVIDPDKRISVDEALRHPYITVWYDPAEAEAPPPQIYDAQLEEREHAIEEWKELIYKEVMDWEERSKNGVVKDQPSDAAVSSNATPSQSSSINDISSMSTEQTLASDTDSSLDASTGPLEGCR
T3 sequence (P14902 whole entry, the tested form may be a part): as the sequence (P14902 whole entry) above
T4 sequence (Q8TEK3 1-416): as the sequence (Q8TEK3 1-416) above
Chain of JNK3 (P53779 whole entry, species assumed): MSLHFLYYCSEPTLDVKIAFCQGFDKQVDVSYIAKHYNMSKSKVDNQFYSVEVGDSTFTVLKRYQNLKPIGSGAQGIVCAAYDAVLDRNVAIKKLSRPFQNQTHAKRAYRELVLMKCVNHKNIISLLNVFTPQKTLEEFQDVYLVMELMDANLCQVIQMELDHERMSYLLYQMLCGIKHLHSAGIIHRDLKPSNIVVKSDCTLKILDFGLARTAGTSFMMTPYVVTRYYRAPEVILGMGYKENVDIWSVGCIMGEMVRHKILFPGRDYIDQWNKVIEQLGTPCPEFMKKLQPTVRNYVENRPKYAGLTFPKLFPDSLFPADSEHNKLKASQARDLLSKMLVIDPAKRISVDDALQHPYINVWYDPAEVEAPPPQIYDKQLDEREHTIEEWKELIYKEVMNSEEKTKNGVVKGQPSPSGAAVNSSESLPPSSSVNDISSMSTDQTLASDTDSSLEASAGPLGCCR

- Kd (AAK1; [2]): 90 µM
- LE (AAK1): 0.57
- LELP (AAK1): 4.03
Structure (SMILES): Nc1c(Cl)ccc(O)c1Cl [Fragment 0471]

- Kd (CAMK1G): 130 µM
Structure (SMILES): Cc1c(Cl)cnc(N)c1Cl [Fragment 7405]
- ITC validation (KD) (DOT1L): None of these could be validated with ITC

- Kd (AAK1; [2]): 6 µM
- LE (AAK1): 0.67
- LELP (AAK1): 2.86
- LE (CAMK1G; LE=1/N⋅1.4⋅−log(KD), CAMK1G): over 0.4
- stability with GSH (in words) [1]: sufficiently stable
Structure (SMILES): Nc1ccc2[nH]cnc2c1Br [Fragment 7409]

- Kd (AAK1; [2]): 60 µM
Structure (SMILES): Clc1nccc2cc[nH]c12 [Fragment A2]

- KD (AAK1; [2]): completely abolished the affinity
- Kd (AAK1; SAR analogs of 9595): > 1000 µM
Structure (SMILES): c1cc2cc[nH]c2cn1 [Fragment A3]

The remaining lines, values behind:

Structure (SMILES): Brc1cnc2cnccn12 [Fragment 0120]
- ITC validation (KD) (DOT1L): None of these could be validated with ITC
- STD-NMR hit (CAMK1G (1-320)): fragment hits

Structure (SMILES): Cc1n[nH]c(C)c1I [Fragment 0459]
- STD-NMR hit (AAK1 (121-471)): STD hit
- ITC validation (KD) (DOT1L): None of these could be validated with ITC; also recorded: beyond the limits of ITC
- STD-NMR hit (IDO1 (1-435)): STD hit
- STD-NMR hit (DOT1L (1-416)): STD hit
- Kd (AAK1; [2]): 18 µM
- KD (IDO1; [3]): too low to derive reliable affinity determination
- Kd (IDO1; [3]): > 1000 µM
- STD-NMR hit (CAMK1G (1-320)): STD hit
- Kd (CAMK1G): 190 µM

Structure (SMILES): Oc1nc2nc(Cl)ccc2[nH]1 [Fragment 0474]
- Kd (AAK1; [2]): 180 µM
- LE (AAK1): 0.48
- LELP (AAK1): 1.90
- stability with GSH (in words) [1]: sufficiently stable

Structure (SMILES): Cn1c(=O)c2[nH]c(Cl)nc2n(C)c1=O [Fragment 1216]
- Kd (IDO1; [3]): 390 µM
- LE (IDO1; LE=1/N⋅1.4⋅−log(KD), IDO1): 0.34
- LELP (IDO1; LELP= logP/LE, IDO1): −1.92
- stability with GSH (in words) [1]: sufficiently stable

Structure (SMILES): Nc1c(Cl)ccc2nonc12 [Fragment 1217]
- stability with GSH (in words) [1]: sufficiently stable

Structure (SMILES): Clc1ncnc2cc[nH]c12 [Fragment 9595, 4-chloro-5H-pyrrolo[3,2-d]pyrimidine]
- STD-NMR hit (AAK1 (121-471)): binds
- Kd (AAK1; [2]): 6 µM
- Kd (JNK2): 67 µM
- Kd (JNK3): 130 µM
- stability with GSH (in words) [1]: sufficiently stable

Structure (SMILES): Clc1ccnc2cc[nH]c12 [Fragment A1]
- Kd (AAK1; [2]): 50 µM

Structure (SMILES): Clc1ncnc2ccoc12 [Fragment A4]
- Kd (AAK1; [2]): 302 µM

Structure (SMILES): Clc1ncnc2ccsc12 [Fragment A5]
- KD (AAK1; [2]): completely abolished the affinity

Structure (SMILES): Clc1cccc2cc[nH]c12 [Fragment A6]
- Kd (AAK1; [2]): 170 µM
